Series [1] deals with Peptidyl-prolyl cis-trans isomerase A (Homo sapiens, UniProt P62937). Nature of the series: Binding affinity to cyclophilin A by ELISA.
Series [2] addresses Peptidyl-prolyl cis-trans isomerase B (Homo sapiens, UniProt P23284). Briefly: Binding affinity to cyclophilin B by ELISA. Background: An ELISA detects its analyte on a solid surface through an enzyme-linked reagent.
The test system of a further series is Jurkat. Nature of the series: Immunosuppressive activity against human Jurkat cells assessed as inhibition of phytohemagglutinin-M/phorbol myristate acetate-induced IL2 production. In kind it is cell-based.
A further series deals with Hepatitis C virus. Nature of the series: Antiviral activity against HCV after 72 hrs by stable luciferase reporter gene assay. In kind it is functional, organism-based, Hepacivirus hominis. (Reporter assays use an easily measured gene product as a stand-in for the process of interest.)
Series [3] in a line: Cytotoxicity against human HuH7 cells assessed as release of lactate dehydrogenase. In kind it is cell-based, Huh-7. The note with it: for IC50: Homo sapiens, Huh-7; for IC90: human, HuH7 cells.

Chain of Peptidyl-prolyl cis-trans isomerase A (P62937 whole entry): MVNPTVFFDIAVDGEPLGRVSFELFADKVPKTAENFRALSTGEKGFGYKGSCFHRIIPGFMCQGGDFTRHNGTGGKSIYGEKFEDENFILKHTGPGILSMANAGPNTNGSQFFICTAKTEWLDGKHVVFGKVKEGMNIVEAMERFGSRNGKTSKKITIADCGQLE
Chain of Peptidyl-prolyl cis-trans isomerase B (P23284 whole entry): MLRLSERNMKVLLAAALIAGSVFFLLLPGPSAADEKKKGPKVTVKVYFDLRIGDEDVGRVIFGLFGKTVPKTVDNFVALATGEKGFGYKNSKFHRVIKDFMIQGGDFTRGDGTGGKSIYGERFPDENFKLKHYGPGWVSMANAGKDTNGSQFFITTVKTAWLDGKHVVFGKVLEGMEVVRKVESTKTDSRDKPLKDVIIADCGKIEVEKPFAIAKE

As for `C/C=C/C[C@@H](C)[C@@H](O)[C@H]1C(=O)N[C@@H](CC)C(=O)N(C)CC(=O)N(C)[C@@H](CC(C)C)C(=O)N[C@@H](C(C)C)C(=O)N(C)[C@@H](CC(C)C)C(=O)N[C@@H](C)C(=O)N[C@H](CN(CC)CC)C(=O)N(C)[C@@H](CC(C)C)C(=O)N(C)[C@@H](CC(C)C)C(=O)N(C)[C@@H](C(C)C)C(=O)N1C`, the IC50 in series [1] was found to be 140 nM; in series [2] it was 158 nM; in series [3], 2680 nM. Moreover, the concentration for a half-maximal effect (EC50) turned out to be 55 nM in the series on Jurkat and 380 nM in the series with Hepatitis C virus. Further, the EC90 with Hepatitis C virus was found to be 950 nM. Besides, the 90% effect concentration (IC90) in series [3] was over 10000 nM.
As to `C/C=C/C[C@@H](C)[C@@H](O)[C@H]1C(=O)N[C@@H](CC)C(=O)N(C)CC(=O)N(C)[C@@H](CC(C)C)C(=O)N[C@@H](C(C)C)C(=O)N(C)[C@@H](CC(C)C)C(=O)N[C@@H](C)C(=O)N[C@H](CCN(CC)CC)C(=O)N(C)[C@@H](CC(C)C)C(=O)N(C)[C@@H](CC(C)C)C(=O)N(C)[C@@H](C(C)C)C(=O)N1C`, the figures for the IC50 in series [1], in series [2] and in series [3] were 65.2 nM, 55.9 nM and 1500 nM, respectively. The EC50 worked out at 114 nM in the series on Jurkat and 170 nM with Hepatitis C virus. The compound also showed an EC90 in the series on Hepatitis C virus of 350 nM. Also, in series [3], the IC90 turned out to be 8620 nM.
Regarding `C/C=C/C[C@@H](C)[C@@H](O)[C@H]1C(=O)N[C@@H](CC)C(=O)N(C)CC(=O)N(C)[C@@H](CC(C)C)C(=O)N[C@@H](C(C)C)C(=O)N(C)[C@@H](CC(C)C)C(=O)N[C@@H](C)C(=O)N[C@H](CCCN(CC)CC)C(=O)N(C)[C@@H](CC(C)C)C(=O)N(C)[C@@H](CC(C)C)C(=O)N(C)[C@@H](C(C)C)C(=O)N1C`, the results for the IC50 in series [1], in series [2] and in series [3] were 21.4 nM, 17.2 nM and 1820 nM, respectively. Also, the values for the EC50 with Jurkat and in the series with Hepatitis C virus were 134 nM and 150 nM, respectively. In the series on Hepatitis C virus, this compound displayed an EC90 of 370 nM. The concentration for an effect of 90% (IC90) in series [3] turned out to be 8910 nM.
Regarding `C/C=C/C[C@@H](C)[C@@H](O)[C@H]1C(=O)N[C@@H](CC)C(=O)N(C)CC(=O)N(C)[C@@H](CC(C)C)C(=O)N[C@@H](C(C)C)C(=O)N(C)[C@@H](CC(C)C)C(=O)N[C@@H](C)C(=O)N[C@H](CCCCN(CC)CC)C(=O)N(C)[C@@H](CC(C)C)C(=O)N(C)[C@@H](CC(C)C)C(=O)N(C)[C@@H](C(C)C)C(=O)N1C`, the IC50 stood at 26.6 nM in series [1], 19.8 nM in series [2] and 2240 nM in series [3]. For the same compound, the EC50 came to 2170 nM in the series with Jurkat and 180 nM in the series on Hepatitis C virus. This compound yielded an EC90 with Hepatitis C virus of 530 nM. For the same compound, the IC90 in series [3] worked out at 7900 nM.

One may read the IC50 as the concentration that gives 50% inhibition. Broadly, the EC50 is the midpoint of the concentration-response curve. What is called EC90 is the concentration at which the effect reaches the 90% level. Read a low EC90 as greater potency. A word on the IC90: it is the concentration at which the effect reaches the 90% level.

The values above are taken from ChEMBL document CHEMBL1269000, “Synthesis and biological evaluation of [D-lysine]8cyclosporin A analogs as potential anti-HCV agents” (Bioorg Med Chem Lett, 2010).
